Source: US6479531B1, “Gastrin and cholecystokinin receptor ligands” (James Black Foundation Limited, priority 1998, dated 2002)

Molecular target: T1, CCKB receptor (Mus musculus, UniProt P56481)
T1 construct: The whole brains from male mice (CD1 22-25 g; Charles River) were removed; from tissue; host or cells: cerebral cortex membranes of male CD1 mice
T1 sequence (P56481 1-453): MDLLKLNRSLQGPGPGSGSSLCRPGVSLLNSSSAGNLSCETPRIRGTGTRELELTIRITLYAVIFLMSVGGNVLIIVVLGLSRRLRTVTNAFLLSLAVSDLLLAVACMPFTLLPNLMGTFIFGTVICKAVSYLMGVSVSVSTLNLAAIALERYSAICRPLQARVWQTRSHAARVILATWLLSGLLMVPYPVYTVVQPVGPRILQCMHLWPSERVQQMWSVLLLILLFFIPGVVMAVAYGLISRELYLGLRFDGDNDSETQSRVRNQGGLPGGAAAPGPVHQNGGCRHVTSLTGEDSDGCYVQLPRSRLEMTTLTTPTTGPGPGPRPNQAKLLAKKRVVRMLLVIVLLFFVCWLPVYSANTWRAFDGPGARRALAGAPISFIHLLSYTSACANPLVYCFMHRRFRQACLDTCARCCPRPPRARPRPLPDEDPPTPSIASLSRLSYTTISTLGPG
Experiment: CCKB receptor radioligand binding assay in mouse cortical membranes
Settings: [125I]-CCK8(S) 200 pM, 150 min at 21±3°; for Ki: read-out: CCKB pKi (converted)
Protocol: The compounds of the examples were tested for binding at the CCKB receptor in mouse cortical membranes by means of a radioligand binding assay. The procedure was as follows:
The whole brains from male mice (CD1 22-25 g; Charles River) were removed and placed in ice-cold buffer (pH 7.2 @ 21±3°) of the following composition (mM); 10 HEPES, 130 NaCl, 4.7 KCl, 5 MgCl2, 1 EDTA and containing 0.25 gl^−1 bacitracin. The cortex was dissected, weighed and homogenised in 40 ml ice-cold buffer using a Teflon-in-glass homogeniser. The homogenate was centrifuged at 39800 g for 20 min […], the supernatant discarded and the pellet resuspended by homogenisation in fresh buffer. The homogenate was recentrifuged (39800 g, 20 min @ 4°) and the final pellet was resuspended in HEPES buffer to give a tissue concentration of 20 mg ml^−1 (original wet weight).
The assay was terminated by rapid filtration through pre-soaked Whatman GF/B filters using a Brandell Cell Harvester. The filters were washed (3×3 ml) with ice-cold 50 mM Tris-HCl (pH 7.4 @ 4° C.) and bound radioactivity determined by counting (1 min) in a gamma-counter.

Molecule	Ki [nM]	CCKB pKi
Cc1ccc(NC(=O)c2c(CCC34CC5CC(CC(C5)C3)C4)nc(-c3ccccc3C)n2C)cc1C(=O)O [Example 162, 5-{[5-(2-Adamantan-1-yl-ethyl)-3-methyl-2-o-tolyl-3H-imidazole-4-carbonyl]-amino}-2-methyl-benzoic Acid]	1660	–
O=C(O)c1cccc(NC(=O)c2[nH]c(-c3ccc4ccccc4c3)nc2CC2CCCCCC2)c1 [Example 21, 3-[(5-Cycloheptylmethyl-2-naphthalen-2-yl-1H-imidazole-4-carbonyl)-amino]-benzoic Acid]	813	–
O=C(O)c1cccc(NC(=O)c2nc(-c3ccncc3)[nH]c2CCC23CC4CC(CC(C4)C2)C3)c1 [Example 180, 3-{[5-(2-Adamantan-1-yl-ethyl)-2-pyridine-4-yl-1H-imidazole-4-carbonyl]-amino}-benzoic Acid]	1860	–
O=C(Nc1cc(-c2nnn[nH]2)cc(-c2nnn[nH]2)c1)c1nc(-c2ccccc2)[nH]c1CC1CCCCCC1 [Example 25, 5-Cycloheptyimethyl-2-phenyl-1H-imidazole-4-carboxylic Acid [3,5-bis-(1H-tetrazol-5-yl)-phenyl]-amide]	69.2	–
Cc1ncccc1-c1nc(C(=O)Nc2cccc(C(=O)O)c2)c(CCC23CC4CC(CC(C4)C2)C3)[nH]1 [Example 181, 3-{[5-(2-Adamantan-1-yl-ethyl)-2-(2-methyl-pyridine-3-yl)-1H-imidazole-4-carbonyl]-amino}-benzoic Acid]	676	–
Cc1ccccc1-c1nc(C(=O)Nc2cc(C(=O)O)cc(C(F)(F)F)c2)c(CCC23CC4CC(CC(C4)C2)C3)[nH]1 [Example 243, 3-{[5-(2-Adamantan-1-yl-ethyl)-2-o-tolyl-1H-imidazole-4-carbonyl]-amino}-5-trifluoromethyl-benzoic Acid]	537	–
O=C(O)c1ccc(NC(=O)c2cc(-c3ccccc3)[nH]c2CC23CC4CC(CC(C4)C2)C3)cc1 [Example 7, 4-[(2-Adamantan-1-ylmethyl-5-phenyl-1H-pyrrole-3-carbonyl)-amino]-benzoic Acid]	646	–
3-{[5-(2-Methyl-butyl)-2-o-tolyl-1H-imidazole-4-carbonyl]-amino}-benzoic Acid [Example 90]	–	5.16
O=C(O)c1cccc(NC(=O)c2cc(-c3ccc4ccccc4c3)[nH]c2CC2CCCCCC2)c1 [Example 14, 3-[(2-Cycloheptylmethyl-5-naphthalen-2-yl-1H-pyrrole-3-carbonyl)-amino]-benzoic Acid]	1320	–
Cc1ccccc1-c1nc(C(=O)Nc2ccc(C)c(C(=O)O)c2C)c(CCC23CC4CC(CC(C4)C2)C3)[nH]1 [Example 240, 3-{[5-(2-Adamantan-1-yl-ethyl)-2-o-tolyl-1H-imidazole-4-carbonyl]-amino}-2,6-dimethyl-benzoic Acid]	26.3	–
Cc1ccccc1-c1nc(C(=O)Nc2cccc(C(=O)NS(=O)(=O)c3ccccc3)c2)c(CCC23CC4CC(CC(C4)C2)C3)[nH]1 [Example 101, 5-(2-Adamantan-1-yl-ethyl)-2-o-tolyl-1H-imidazole-4-carboxylic acid (3-benzenesulfonylaminocarbonyl-phenyl)-amide]	372	–
O=C(O)c1cc(NC(=O)c2nc(C3CCCCC3)[nH]c2CC2CCCCCC2)cc(C(=O)O)c1 [Example 34, 5-[(5-Cycloheptylmethyl-2-cyclohexyl-1H-imidazole-4-carbonyl)-amino]-isophthalic Acid]	1580	–
Cc1ccccc1-c1nc(C(=O)N2CCC[C@H]2C(=O)O)c(CCC23CC4CC(CC(C4)C2)C3)[nH]1 [Example 95, (2S)-1-[5-(2-Adamantan-1-yl-ethyl)-2-o-tolyl-1H-imidazole-4-carbonyl]-pyrrolidine-carboxylic Acid]	2510	–
O=C(O)c1cc(NC(=O)c2[nH]c(-c3ccc4ccccc4c3)nc2CC2CCCCCC2)cc(C(=O)O)c1 [Example 20, 5-[(5-Cycloheptylmethyl-2-naphthalen-2-yl-1H-imidazole-4-carbonyl)-amino]-isophthalic Acid]	251	–
Cc1ccccc1-c1nc(C(=O)Nc2cccc(C(=O)O)c2)c(CCC23CC4CC(CC(C4)C2)C3)s1 [Example 121, 3-{[5-(2-Adamanatan-1-yl-ethyl)-2-o-tolyl-thiazole-4-carbonyl]-amino}-benzoic Acid]	2400	–
Cc1ccccc1-c1nc(C(=O)Nc2cc(C(=O)O)ccc2F)c(CCC23CC4CC(CC(C4)C2)C3)[nH]1 [Example 238, 3-{[5-(2-Adamantan-1-yl-ethyl)-2-o-tolyl-1H-imidazole-4-carbonyl]-amino}-4-fluoro-benzoic Acid]	5890	–
O=C(O)CCNC(=O)c1cc(-c2ccccc2)[nH]c1CC12CC3CC(CC(C3)C1)C2 [Example 10, 3-[(2-Adamantan-1-ylmethyl-5-phenyl-1H-pyrrole-3-carbonyl)-amino]-propionic Acid]	3020	–
Cc1ccccc1-c1nc(CCc2cccc(C(=O)O)c2)c(C(=O)NC23CC4CC(CC(C4)C2)C3)[nH]1 [Example 118, 3-{2-[5(Adamantan-1-ylcarbamoyl)-2-o-tolyl-1H-imidazole-4-yl]-ethyl}-benzoic Acid]	776	–
O=C(O)c1cccc(NC(=O)c2nc(-c3ccc4ccccc4c3)[nH]c2CCC23CC4CC(CC(C4)C2)C3)c1 [Example 45, 3-{[5-(2-Adamantan-1-yl-ethyl)-2-naphthalen-2-yl-1H-imidazole-4-carbonyl]-amino}-benzoic Acid]	501	–
Cc1ccccc1-c1nc(C(=O)NC(C(=O)O)c2ccccc2)c(CCC23CC4CC(CC(C4)C2)C3)[nH]1 (stereo not drawn) [Example 102, {[5-(2-Adamantan-1-yl-ethyl)-2-o-tolyl-1H-imidazole-4-carbonyl]-amino}-phenyl-acetic Acid]	776	–
COc1ccc(NC(=O)c2nc(-c3ccccc3C)[nH]c2CCC23CC4CC(CC(C4)C2)C3)cc1C(=O)O [Example 244, 5-{[5-(2-Adamantan-1-yl-ethyl)-2-o-tolyl-1H-imidazole-4-carbonyl]-amino}-2-methoxy-benzoic Acid]	182	–
Cc1ccccc1-c1nc(C(=O)Nc2cccc(C(=O)O)c2)c(CCC(C)(C)C)[nH]1 [Example 91, 3-{[5-(3,3-Dimethyl-butyl)-2-o-tolyl-1H-imidazole-4-carbonyl]-amino}-benzoic Acid]	3800	–
O=C(Nc1cc(CO)cc(CO)c1)c1[nH]c(-c2ccc3ccccc3c2)nc1CC1CCCCCC1 [Example 22, 5-Cycloheptylmethyl-2-naphthalen-2-yl-1H-imidazole-4-carboxylic Acid (3,5-bis-hydroxymethyl-phenyl)-amide]	4070	–
COc1cccc(-c2nc(C(=O)Nc3cc(C(=O)O)cc(C(=O)O)c3)c(CC3CCCCCC3)[nH]2)c1 [Example 28, 5-[(5-Cycloheptylmethyl-2-(3-methoxy-phenyl)-1H-imidazole-4-carbonyl)-amino]-isophthalic Acid]	1230	–
O=C(O)c1cc(NC(=O)c2nc(-c3ccc4ccccc4c3)[nH]c2CCC23CC4CC(CC(C4)C2)C3)cc(C(=O)O)c1 [Example 44, 5-{[5-(2-Adamantan-1-yl-ethyl)-2-naphthalene-2-yl-1H-imidazole-4-carbonyl]-amino}-isophthalic Acid]	120	–
O=C(O)c1cc(NC(=O)c2nc(-c3cccc4ccccc34)[nH]c2CC2CCCCCC2)cc(C(=O)O)c1 [Example 23, 5-[(5-Cycloheptylmethyl-2-naphthalen-1-yl-1H-imidazole-4-carbonyl)-amino]-isophthalic Acid]	1230	–
O=C(O)c1cc(NC(=O)c2nc(CCc3ccccc3)[nH]c2CC2CCCCCC2)cc(C(=O)O)c1 [Example 27, 5-[(5-Cycloheptylmethyl-2-(2-phenyl-ethyl)-1H-imidazole-4-carbonyl)-amino]-isophthalic Acid]	3550	–
O=C(O)c1cccc(NC(=O)c2nc(-c3cc(Cl)cc(Cl)c3)[nH]c2CCC23CC4CC(CC(C4)C2)C3)c1 [Example 147, 3-{[5-(2-Adamantan-1-yl-ethyl)-2-(3,5-dichlorophenyl)-1H-imidazole-4-carbonyl]-amino}-benzoic Acid]	912	–
O=C(O)c1cc(NC(=O)c2nc(-c3cccnc3)[nH]c2CC2CCCCCC2)cc(C(=O)O)c1 [Example 32, 5-[(5-Cycloheptylmethyl-2-pyridin-3-yl-1H-imidazole-4-carbonyl)-amino]-isophthalic Acid]	4790	–
O=C(Nc1cc(-c2nnn[nH]2)cc(-c2nnn[nH]2)c1)c1cc(-c2ccccc2)[nH]c1CC12CC3CC(CC(C3)C1)C2 [Example 2, 2-Adamantan-1-ylmethyl-5-phenyl-1H-pyrrole-3-carboxylic Acid [3,5-bis-(1H-tetrazol-5-yl)-phenyl]-amide]	49	–
